Data on 19 compounds can be found in PubChem BioAssay (NCI).

Several values for one entry are separate records, joined by “and”; a condition that tells them apart may be missing. Equal values may be shown once.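 Five concentrations, 48 hours, 96-well plates. GI50: concentration for 50% inhibition of growth. TGI: concentration producing complete growth inhibition.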

The test system of one assay is MOLT-4 leukemia. Put plainly: growth of human tumour cells (NCI), 48 h.
The compound `CC1=NN(C(=O)CC(=O)N(C(=O)c2ccccc2Cl)c2ccc(C)cc2)C(=O)C1N=Nc1ccc([N+](=O)[O-])cc1` (stereo unspecified) returned a TGI greater than 100 µM.
With `CCn1c(CO)nn(-c2cc(O[C@@H](C)C(F)(F)F)c(C(=O)Nc3c(F)cccc3Cl)cc2F)c1=O`, the GI50 was less than 0.01 µM and the TGI is greater than 100 µM.
`CC1CCC(=O)C(C(=O)CC2CC(=O)NC(=O)C2)C1` (stereo unspecified) gave a TGI greater than 100 µM.
In turn, `COc1cccc(-n2c3nc(=O)n(C)c(=O)c-3nc3ccccc32)c1` displayed a TGI of 40.6 µM.
Consider `CC(C)(C=O)CC(C#N)/C(=N\NC(N)=O)C(=O)Nc1ccccc1C(N)=O` (stereo unspecified), for which the TGI is greater than 100 µM.
`Cc1cc(C)c(C2[C@H]3C(=O)N(c4ccc(Cc5ccc(N6C(=O)[C@@H]7ON(c8ccccc8)C(c8c(C)cc(C)cc8C)[C@@H]7C6=O)cc5)cc4)C(=O)[C@H]3ON2c2ccccc2)c(C)c1` (stereo partly specified) gave a TGI greater than 100 µM.
On to `COc1ccc2c(c1)C(C)Cc1c(ncnc1-n1c(C)nc3ccccc31)N2C` (stereo unspecified), for which the GI50 was 2.39 µM and the TGI worked out at 12.5 µM.
Regarding `Cc1cc(C2CC(O)C(CO)O2)cc2c(=O)[nH]c(N)nc12` (stereo unspecified), the GI50 was greater than 100 µM and the TGI was greater than 100 µM.
`COc1ccc2[nH]c3c4c(ccc3c2c1)C(=O)C=CC4=O`: the TGI stood at 3.1 µM.
On to `CC12CCCCC1(C)C2Sc1ccccc1` (stereo unspecified), for which the TGI is 41.6 µM.
In the case of `CCOC(=O)CNC(=O)c1ccccc1Nc1ccnc(C(F)(F)F)c1`, the GI50 was 17.7 µM and the TGI was 54.3 µM.
Take `C[C@@]12CCCc3coc(c31)C(=O)c1cc3c(cc12)C(=O)C=CC3=O`: the GI50 is greater than 1 µM; the TGI was > 1 µM and 6.16 µM.
For the compound `C=CCNC(=O)N(CCC)CCCCC(NC(C)=O)C(=O)NCc1ccccc1` (stereo unspecified), the TGI is greater than 100 µM.
Still for that read-out and setting: to `Nc1ccn(C2(CO)C=C(CO)C(O)C2O)c(=O)n1` (stereo unspecified) belongs greater than 25.8 µM.
With `C=C1C[C@]23CCC4C(C)(C)C(=O)CC[C@]4(C)C2C[C@H]1C(O)C3=O` (stereo partly specified), the TGI was greater than 75 µM.
Regarding `COc1cccc(/C(COc2ccc3c(c2)oc(=O)c2cc(OC)ccc23)=N/O)c1`, the GI50 is 5.61 µM and the TGI was greater than 100 µM.
On to `COc1cc2c(c(OC)n1)[C@]1(O)[C@H](O)[C@H](CN(C)C)[C@@H](c3ccccc3)[C@]1(c1ccc(C#N)cc1)O2`, for which the GI50 was less than 0.01 µM.
In turn, `C=CCSS/C=C/CS(=O)CC=C` (stereo unspecified) showed a TGI greater than 29.5 µM.
Take `Oc1cn(-c2ccc(Cl)cc2)nc1-c1n[nH]c(=S)n1C1CCCCC1`: the GI50 is 0.5 µM and the TGI was greater than 29 µM.

In a further assay the test system is K-562 leukemia. Put plainly: growth of human tumour cells (NCI), 48 h.
`CC1=NN(C(=O)CC(=O)N(C(=O)c2ccccc2Cl)c2ccc(C)cc2)C(=O)C1N=Nc1ccc([N+](=O)[O-])cc1` (stereo unspecified) showed a TGI greater than 80.8 µM.
`CCn1c(CO)nn(-c2cc(O[C@@H](C)C(F)(F)F)c(C(=O)Nc3c(F)cccc3Cl)cc2F)c1=O`: the GI50 was less than 0.01 µM and the TGI is greater than 100 µM.
`CC1CCC(=O)C(C(=O)CC2CC(=O)NC(=O)C2)C1` (stereo unspecified) came in with a TGI greater than 100 µM.
The same measure, in the same setting: to `COc1cccc(-n2c3nc(=O)n(C)c(=O)c-3nc3ccccc32)c1` belongs greater than 100 µM; to `CC(C)(C=O)CC(C#N)/C(=N\NC(N)=O)C(=O)Nc1ccccc1C(N)=O` (stereo unspecified), greater than 100 µM.
In turn, `Cc1cc(C)c(C2[C@H]3C(=O)N(c4ccc(Cc5ccc(N6C(=O)[C@@H]7ON(c8ccccc8)C(c8c(C)cc(C)cc8C)[C@@H]7C6=O)cc5)cc4)C(=O)[C@H]3ON2c2ccccc2)c(C)c1` (stereo partly specified) came in with a TGI greater than 100 µM.
As to `COc1ccc2c(c1)C(C)Cc1c(ncnc1-n1c(C)nc3ccccc31)N2C` (stereo unspecified), the GI50 is 0.452 µM and the TGI was determined as 13.3 µM.
For `Cc1cc(C2CC(O)C(CO)O2)cc2c(=O)[nH]c(N)nc12` (stereo unspecified), in that order: greater than 100 µM and greater than 100 µM.
For the compound `COc1ccc2[nH]c3c4c(ccc3c2c1)C(=O)C=CC4=O`, the TGI worked out at 3.97 µM.
For the compound `CC12CCCCC1(C)C2Sc1ccccc1` (stereo unspecified), the TGI worked out at 19.9 µM.
With `CCOC(=O)CNC(=O)c1ccccc1Nc1ccnc(C(F)(F)F)c1`, the GI50 is 24 µM and the TGI was greater than 69.4 µM.
Take `C[C@@]12CCCc3coc(c31)C(=O)c1cc3c(cc12)C(=O)C=CC3=O`: the GI50 was greater than 1 µM; the TGI was > 1 µM and 78.2 µM.
In turn, `C=CCNC(=O)N(CCC)CCCCC(NC(C)=O)C(=O)NCc1ccccc1` (stereo unspecified) registered a TGI greater than 100 µM.
For `Nc1ccn(C2(CO)C=C(CO)C(O)C2O)c(=O)n1` (stereo unspecified), the TGI is greater than 25.8 µM.
On the same count and under the same terms, to `C=C1C[C@]23CCC4C(C)(C)C(=O)CC[C@]4(C)C2C[C@H]1C(O)C3=O` (stereo partly specified) belongs greater than 75 µM.
Take `COc1cccc(/C(COc2ccc3c(c2)oc(=O)c2cc(OC)ccc23)=N/O)c1`: the GI50 was 4.43 µM and the TGI is greater than 100 µM.
With `COc1cc2c(c(OC)n1)[C@]1(O)[C@H](O)[C@H](CN(C)C)[C@@H](c3ccccc3)[C@]1(c1ccc(C#N)cc1)O2`, the GI50 was less than 0.01 µM.
`C=CCSS/C=C/CS(=O)CC=C` (stereo unspecified) displayed a TGI greater than 77.9 µM.
Consider `Oc1cn(-c2ccc(Cl)cc2)nc1-c1n[nH]c(=S)n1C1CCCCC1`, for which the GI50 is less than 0.0427 µM.

Another assay relates to SK-MEL-2 melanoma. Put plainly: growth of human tumour cells (NCI), 48 h.
In turn, `CC1=NN(C(=O)CC(=O)N(C(=O)c2ccccc2Cl)c2ccc(C)cc2)C(=O)C1N=Nc1ccc([N+](=O)[O-])cc1` (stereo unspecified) yielded a TGI greater than 100 µM.
As for `CCn1c(CO)nn(-c2cc(O[C@@H](C)C(F)(F)F)c(C(=O)Nc3c(F)cccc3Cl)cc2F)c1=O`, the GI50 is greater than 28.4 µM and the TGI is greater than 100 µM.
Turning to `CC1CCC(=O)C(C(=O)CC2CC(=O)NC(=O)C2)C1` (stereo unspecified), the TGI was greater than 100 µM.
`COc1cccc(-n2c3nc(=O)n(C)c(=O)c-3nc3ccccc32)c1` displayed a TGI of 56 µM.
The same measure, in the same setting: under `CC(C)(C=O)CC(C#N)/C(=N\NC(N)=O)C(=O)Nc1ccccc1C(N)=O` (stereo unspecified) stands greater than 100 µM; under `Cc1cc(C)c(C2[C@H]3C(=O)N(c4ccc(Cc5ccc(N6C(=O)[C@@H]7ON(c8ccccc8)C(c8c(C)cc(C)cc8C)[C@@H]7C6=O)cc5)cc4)C(=O)[C@H]3ON2c2ccccc2)c(C)c1` (stereo partly specified), greater than 100 µM.
As for `COc1ccc2c(c1)C(C)Cc1c(ncnc1-n1c(C)nc3ccccc31)N2C` (stereo unspecified), the GI50 was 4.48 µM and the TGI was 17.8 µM.
For the compound `Cc1cc(C2CC(O)C(CO)O2)cc2c(=O)[nH]c(N)nc12` (stereo unspecified), the GI50 is greater than 100 µM and the TGI was greater than 100 µM.
`COc1ccc2[nH]c3c4c(ccc3c2c1)C(=O)C=CC4=O` gave a TGI of 28.5 µM.
In turn, `CC12CCCCC1(C)C2Sc1ccccc1` (stereo unspecified) showed a TGI of 50.7 µM.
Take `CCOC(=O)CNC(=O)c1ccccc1Nc1ccnc(C(F)(F)F)c1`: the GI50 is 44.6 µM and the TGI is greater than 72.4 µM.
